Values after ≈ are worked out from the molar mass of the structure shown.
test system: HFF-1 (human fibroblast cell line); assay: Antiproliferative WST-1 assay, normal fibroblasts HFF-1 (toxicity control); format: cell-based; settings: normal human fibroblasts HFF-1, 72 h exposure, WST-1
Experimental: (§1) Compounds were evaluated for their anticancer activity using […] cultured cell lines: SNB-19 (human glioblastoma, DSMZ—German Collection of Microorganisms and Cell Cultures, Braunschweig, Germany), C-32 (human amelanotic melanoma, ATCC—American Type Culture Collection, Manassas, VA, USA), T47D (human ductal breast epithelial tumor cell line, ATCC, Manassas, VA, USA), and HFF-1 (human fibroblast cell line, ATCC, Manassas, VA, USA). The cultured cells were kept at 37 °C and 5 % CO2. The cells were seeded (1 × 10^4 cells/well/100 μl DMEM supplemented with 10 % FCS and streptomycin and penicillin) using 96-well plates (Corning).
(§2) In recent years, tetrazolium salts have been described which can be used for the measurement of cell proliferation and viability. The tetrazolium salts are cleaved to formazan by cellular enzymes. An expansion in the number of viable cells results in an increase in the overall activity of mitochondrial dehydrogenases in the sample. This augmentation in enzyme activity leads to an increase in the amount of formazan dye formed, which directly correlates with the number of metabolically active cells in the culture. The formazan dye produced by metabolically active cells is quantified by a scanning ELISA reader by measuring the absorbance of the dye solution at appropriate wavelengths (λ = 420–480 nm with a reference wavelength λ = 600 nm).
(§3) Antiproliferative effect of compounds was determined using the Cell Proliferation Reagent WST-1 assay (Roche Diagnostics, Mannheim, Germany). After exposure to tested compounds (at concentrations between 0 and 100 μg/ml) for 72 h, cells were incubated with WST-1 (10 μl) for 1 h, and the absorbance of the samples against a background control was read at 450 nm using with a reference wavelength λ = 600 nm a microplate reader. Results are expressed as means of at least two independent experiments performed in triplicate.

Q: `CN(C)CCCSc1nc(Cl)nc2ncn(C)c12` [Compound 4b] was tested. Which EC50 did it give?
A: > 50 µg/mL

Q: With `CCN(CC)CCSc1nc(SCCN(CC)CC)c2c(ncn2C)n1` [Compound 4c] as the compound, how does the EC50 read?
A: 40 µg/mL (≈ 101 µM)

Q: For `CN(C)CCCSc1nc(SCCCN(C)C)c2c(ncn2C)n1` [Compound 4d], which EC50 is on record?
A: > 50 µg/mL

Q: `Cn1cnc2nc(SCCN3CCCC3)nc(SCCN3CCCC3)c21` [Compound 4e] was tested. Which EC50 did it give?
A: 35.4 µg/mL (≈ 90.2 µM)

Q: With `Cn1cnc2nc(SCCN3CCCCC3)nc(SCCN3CCCCC3)c21` [Compound 4f] as the compound, how does the EC50 read?
A: 45.5 µg/mL (≈ 108 µM)

Q: `Cn1cnc2nc(SCCN3CCOCC3)nc(SCCN3CCOCC3)c21` [Compound 4g] was tested. Which EC50 did it give?
A: > 50 µg/mL

Q: `Cn1cnc2nc(Cl)nc(S(N)(=O)=O)c21` [Compound 8a, 2-Chloro-7-methyl-6-purinesulfonamide] was tested. Which EC50 did it give?
A: > 50 µg/mL

Q: With `COc1nc(S(N)(=O)=O)c2c(ncn2C)n1` [Compound 8b, 2-Methoxy-7-methyl-6-purinesulfonamide] as the compound, how does the EC50 read?
A: > 50 µg/mL

Q: `CSc1nc(S(N)(=O)=O)c2c(ncn2C)n1` [Compound 8c, 2-Methylthio-7-methyl-6-purinesulfonamide] was tested. Which EC50 did it give?
A: > 50 µg/mL

Q: How did the EC50 turn out when `Cn1cnc2nc(S(N)(=O)=O)nc(S(N)(=O)=O)c21` [Compound 8d, 7-Methyl-2,6-purinedisulfonamide] was run?
A: > 50 µg/mL

Q: Which EC50 does the source give for `Cn1cnc2nc(Cl)nc(SN)c21` [Compound 10a, 2-Chloro-7-methyl-6-purinesulfenamide] here?
A: > 50 µg/mL

test system: SNB-19 (human glioblastoma); assay: Antiproliferative WST-1 assay, glioblastoma SNB-19; format: cell-based; settings: Homo sapiens, SNB-19, 72 h, SNB-19 cells, 72 h exposure, WST-1; read-out: Antiproliferative activity EC50 SBN-19
Experimental: as §1, §2, §3

Q: Which EC50 does the source give for `CN(C)CCCSc1nc(Cl)nc2ncn(C)c12` [Compound 4b] here?
A: < 10 µg/mL

Q: With `CCN(CC)CCSc1nc(SCCN(CC)CC)c2c(ncn2C)n1` [Compound 4c] as the compound, how does the EC50 read?
A: < 10 µg/mL

Q: How did the EC50 turn out when `CN(C)CCCSc1nc(SCCCN(C)C)c2c(ncn2C)n1` [Compound 4d] was run?
A: 36.3 µg/mL (≈ 98.4 µM)

Q: Which EC50 does the source give for `Cn1cnc2nc(SCCN3CCCC3)nc(SCCN3CCCC3)c21` [Compound 4e] here?
A: < 10 µg/mL

Q: With `Cn1cnc2nc(SCCN3CCCCC3)nc(SCCN3CCCCC3)c21` [Compound 4f] as the compound, how does the EC50 read?
A: < 10 µg/mL

Q: Which EC50 does the source give for `Cn1cnc2nc(SCCN3CCOCC3)nc(SCCN3CCOCC3)c21` [Compound 4g] here?
A: > 50 µg/mL

Q: With `Cn1cnc2nc(Cl)nc(S(N)(=O)=O)c21` [Compound 8a, 2-Chloro-7-methyl-6-purinesulfonamide] as the compound, how does the EC50 read?
A: > 50 µg/mL

Q: Which EC50 does the source give for `COc1nc(S(N)(=O)=O)c2c(ncn2C)n1` [Compound 8b, 2-Methoxy-7-methyl-6-purinesulfonamide] here?
A: 35 µg/mL (≈ 144 µM)

Q: Which EC50 does the source give for `CSc1nc(S(N)(=O)=O)c2c(ncn2C)n1` [Compound 8c, 2-Methylthio-7-methyl-6-purinesulfonamide] here?
A: > 50 µg/mL

Q: `Cn1cnc2nc(S(N)(=O)=O)nc(S(N)(=O)=O)c21` [Compound 8d, 7-Methyl-2,6-purinedisulfonamide] was tested. Which EC50 did it give?
A: > 50 µg/mL

Q: For `Cn1cnc2nc(Cl)nc(SN)c21` [Compound 10a, 2-Chloro-7-methyl-6-purinesulfenamide], which EC50 is on record?
A: > 50 µg/mL

same assay, conditions: SNB-19 cells, 72 h exposure, WST-1

Q: For `CN(C)CCCSc1nc(Cl)nc2ncn(C)c12` [Compound 4b], which “Antiproliferative activity EC50 SBN-19” value is on record?
A: 8.45 µg/mL

Q: `CCN(CC)CCSc1nc(SCCN(CC)CC)c2c(ncn2C)n1` [Compound 4c] was tested. Which “Antiproliferative activity EC50 SBN-19” value did it give?
A: 9.82 µg/mL

Q: For `Cn1cnc2nc(SCCN3CCCC3)nc(SCCN3CCCC3)c21` [Compound 4e], which “Antiproliferative activity EC50 SBN-19” value is on record?
A: 7.95 µg/mL

Q: For `Cn1cnc2nc(SCCN3CCCCC3)nc(SCCN3CCCCC3)c21` [Compound 4f], which “Antiproliferative activity EC50 SBN-19” value is on record?
A: 9.18 µg/mL

test system: C-32 (human amelanotic melanoma); assay: Antiproliferative WST-1 assay, melanoma C-32; format: cell-based; settings: Homo sapiens, C32; C-32 cells, 72 h exposure, WST-1
Experimental: as §1, §2, §3

Q: How did the EC50 turn out when `CN(C)CCCSc1nc(Cl)nc2ncn(C)c12` [Compound 4b] was run?
A: > 50 µg/mL

Q: `CCN(CC)CCSc1nc(SCCN(CC)CC)c2c(ncn2C)n1` [Compound 4c] was tested. Which EC50 did it give?
A: 33.5 µg/mL (≈ 84.6 µM)

Q: `CN(C)CCCSc1nc(SCCCN(C)C)c2c(ncn2C)n1` [Compound 4d] was tested. Which EC50 did it give?
A: > 50 µg/mL

Q: For `Cn1cnc2nc(SCCN3CCCC3)nc(SCCN3CCCC3)c21` [Compound 4e], which EC50 is on record?
A: 27.1 µg/mL (≈ 68.9 µM)

Q: `Cn1cnc2nc(SCCN3CCCCC3)nc(SCCN3CCCCC3)c21` [Compound 4f] was tested. Which EC50 did it give?
A: 21.8 µg/mL (≈ 51.8 µM)

Q: Which EC50 does the source give for `Cn1cnc2nc(SCCN3CCOCC3)nc(SCCN3CCOCC3)c21` [Compound 4g] here?
A: > 50 µg/mL

Q: `Cn1cnc2nc(Cl)nc(S(N)(=O)=O)c21` [Compound 8a, 2-Chloro-7-methyl-6-purinesulfonamide] was tested. Which EC50 did it give?
A: > 50 µg/mL

Q: How did the EC50 turn out when `COc1nc(S(N)(=O)=O)c2c(ncn2C)n1` [Compound 8b, 2-Methoxy-7-methyl-6-purinesulfonamide] was run?
A: > 50 µg/mL

Q: Which EC50 does the source give for `CSc1nc(S(N)(=O)=O)c2c(ncn2C)n1` [Compound 8c, 2-Methylthio-7-methyl-6-purinesulfonamide] here?
A: > 50 µg/mL

Q: How did the EC50 turn out when `Cn1cnc2nc(S(N)(=O)=O)nc(S(N)(=O)=O)c21` [Compound 8d, 7-Methyl-2,6-purinedisulfonamide] was run?
A: > 50 µg/mL

Q: Which EC50 does the source give for `Cn1cnc2nc(Cl)nc(SN)c21` [Compound 10a, 2-Chloro-7-methyl-6-purinesulfenamide] here?
A: > 50 µg/mL

test system: T47D (human ductal breast epithelial tumor cell line); assay: Antiproliferative WST-1 assay, breast tumor T47D; format: cell-based; settings: Homo sapiens; T47D cells, 72 h exposure, WST-1; read-out: Antiproliferative activity EC50 T47-D
Experimental: as §1, §2, §3

Q: `CN(C)CCCSc1nc(Cl)nc2ncn(C)c12` [Compound 4b] was tested. Which EC50 did it give?
A: > 50 µg/mL

Q: Which EC50 does the source give for `CCN(CC)CCSc1nc(SCCN(CC)CC)c2c(ncn2C)n1` [Compound 4c] here?
A: 24 µg/mL (≈ 60.5 µM)

Q: How did the EC50 turn out when `CN(C)CCCSc1nc(SCCCN(C)C)c2c(ncn2C)n1` [Compound 4d] was run?
A: > 50 µg/mL

Q: How did the EC50 turn out when `Cn1cnc2nc(SCCN3CCCC3)nc(SCCN3CCCC3)c21` [Compound 4e] was run?
A: 38.4 µg/mL (≈ 97.8 µM)

Q: Which EC50 does the source give for `Cn1cnc2nc(SCCN3CCCCC3)nc(SCCN3CCCCC3)c21` [Compound 4f] here?
A: 32.2 µg/mL (≈ 76.7 µM)

Q: Which EC50 does the source give for `Cn1cnc2nc(SCCN3CCOCC3)nc(SCCN3CCOCC3)c21` [Compound 4g] here?
A: > 50 µg/mL

Q: How did the EC50 turn out when `Cn1cnc2nc(Cl)nc(S(N)(=O)=O)c21` [Compound 8a, 2-Chloro-7-methyl-6-purinesulfonamide] was run?
A: > 50 µg/mL

Q: Which EC50 does the source give for `COc1nc(S(N)(=O)=O)c2c(ncn2C)n1` [Compound 8b, 2-Methoxy-7-methyl-6-purinesulfonamide] here?
A: > 50 µg/mL

Q: Which EC50 does the source give for `CSc1nc(S(N)(=O)=O)c2c(ncn2C)n1` [Compound 8c, 2-Methylthio-7-methyl-6-purinesulfonamide] here?
A: > 50 µg/mL

Q: `Cn1cnc2nc(S(N)(=O)=O)nc(S(N)(=O)=O)c21` [Compound 8d, 7-Methyl-2,6-purinedisulfonamide] was tested. Which EC50 did it give?
A: > 50 µg/mL

Q: How did the EC50 turn out when `Cn1cnc2nc(Cl)nc(SN)c21` [Compound 10a, 2-Chloro-7-methyl-6-purinesulfenamide] was run?
A: > 50 µg/mL
